± gives the standard deviation of the averaged measurements.
These test systems were tested with COc1ccc(C2=N[C@@H](c3ccc(Cl)cc3)[C@@H](c3ccc(Cl)cc3)N2C(=O)N2CCNC(=O)C2)c(OC(C)C)c1 [NUTLIN3] (assay: surviving fraction relative to DMSO-only wells; higher = less growth inhibition). Conditions: 50 nM; exposure time: 5 days.
Procedure, shortened: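 Viability was determined by CellTiter-Glo luminescence, expressed as surviving fraction normalised to the median of DMSO-only wells. The cells were log-phase tumour cell lines seeded at 250–500 per well in 384-well plates and, after 24 hours, exposed continuously for five days to inhibitors at 0.5, 1, 5, 10, 50, 100, 500 and 1000 nM. Three screens per line were run, keeping only lines with replicate Pearson r >0.7 and median Z' >0.3.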

| Test System | surviving fraction |
| --- | --- |
| SUM149.B1*.S BREAST | 1.13 ± 0.037 |
| 93VU HEADNECK | 1.12 ± 0.12 |
| LM7 BONE | 0.987 ± 0.065 |
| 143B BONE | 1.06 ± 0.039 |
| SUM159 BREAST | 1.03 ± 0.027 |
| SUM149 BREAST | 1.08 ± 0.075 |
| MDAMB361 BREAST | 0.887 ± 0.12 |
| SAOS2 BONE | 1.15 ± 0.017 |
| ASKA SYNOVIAL | 1.02 ± 0.064 |
| HCC1395 BREAST | 1.21 ± 0.06 |
| HCC1954 BREAST | 1.22 ± 0.26 |
| CME SYNOVIAL | 1.36 ± 0.16 |
| VCAP PROSTATE | 1.18 ± 0.24 |
| YAMATO SYNOVIAL | 1.5 ± 0.061 |
| HCC202 BREAST | 1.2 ± 0.12 |
| HELA CERVIX | 1.06 ± 0.044 |
| SG27 HEADNECK | 0.998 ± 0.064 |
| CAL72 BONE | 1.08 ± 0.027 |
| MDAMB134 BREAST | 1.125 ± 0.0021 |
| C33A CERVIX | 0.978 ± 0.094 |

| Test System | surviving fraction |
| --- | --- |
| SKBR3 BREAST | 0.952 ± 0.14 |
| MHM BONE | 1.01 ± 0.023 |
| VP229 BREAST | 0.972 ± 0.065 |
| SYO1 SYNOVIAL | 0.977 ± 0.042 |
| ZR751 BREAST | 1.11 ± 0.054 |
| KPD BONE | 1.03 ± 0.061 |
| SIHA CERVIX | 1.05 ± 0.073 |
| DU4475 BREAST | 0.965 ± 0.39 |
| BT549 BREAST | 1.18 ± 0.1 |
| COLO320DM LARGE INTESTINE | 1.15 ± 0.16 |
| T47D BREAST | 1.07 ± 0.029 |
| H23 LUNG | 1.08 ± 0.055 |
| NCIH441 LUNG | 1.07 ± 0.095 |
| HCT15 LARGE INTESTINE | 1.05 ± 0.034 |
| SCC90 HEADNECK | 1.12 ± 0.12 |
| MDAMB453 BREAST | 1.13 ± 0.083 |
| MG63 BONE | 1.06 ± 0.029 |
| A549 LUNG | 1.01 ± 0.084 |
| MDAMB468 BREAST | 1.06 ± 0.07 |

Same assay, conditions: 100 nM; exposure time: 5 days

| Test System | surviving fraction |
| --- | --- |
| SUM149.B1*.S BREAST | 1.12 ± 0.017 |
| 93VU HEADNECK | 1.21 ± 0.013 |
| LM7 BONE | 1.08 ± 0.046 |
| 143B BONE | 1.029 ± 0.0099 |
| SUM159 BREAST | 0.998 ± 0.08 |
| SUM149 BREAST | 1.13 ± 0.11 |
| MDAMB361 BREAST | 0.923 ± 0.063 |
| SAOS2 BONE | 1.2 ± 0.029 |
| ASKA SYNOVIAL | 1.05 ± 0.041 |
| HCC1395 BREAST | 1.09 ± 0.061 |
| HCC1954 BREAST | 1.14 ± 0.064 |
| CME SYNOVIAL | 1.44 ± 0.19 |
| VCAP PROSTATE | 1.18 ± 0.023 |
| YAMATO SYNOVIAL | 1.41 ± 0.15 |
| HCC202 BREAST | 1.27 ± 0.13 |
| HELA CERVIX | 1.07 ± 0.041 |
| SG27 HEADNECK | 1 ± 0.062 |
| CAL72 BONE | 1.13 ± 0.043 |
| MDAMB134 BREAST | 1.07 ± 0.032 |
| C33A CERVIX | 1.04 ± 0.055 |

| Test System | surviving fraction |
| --- | --- |
| SKBR3 BREAST | 0.8987 ± 0.0035 |
| MHM BONE | 1.02 ± 0.046 |
| VP229 BREAST | 1.04 ± 0.082 |
| SYO1 SYNOVIAL | 0.934 ± 0.048 |
| ZR751 BREAST | 1.08 ± 0.23 |
| KPD BONE | 1.01 ± 0.098 |
| SIHA CERVIX | 1.2 ± 0.05 |
| DU4475 BREAST | 1.12 ± 0.51 |
| BT549 BREAST | 1.07 ± 0.067 |
| COLO320DM LARGE INTESTINE | 1.21 ± 0.069 |
| T47D BREAST | 1.08 ± 0.033 |
| H23 LUNG | 1.09 ± 0.085 |
| NCIH441 LUNG | 1.08 ± 0.1 |
| HCT15 LARGE INTESTINE | 1.07 ± 0.061 |
| SCC90 HEADNECK | 1.02 ± 0.026 |
| MDAMB453 BREAST | 1.13 ± 0.13 |
| MG63 BONE | 1.05 ± 0.018 |
| A549 LUNG | 1.02 ± 0.019 |
| MDAMB468 BREAST | 1.04 ± 0.076 |

From the supplement of paper PMC6045584
